These results are taken from ChEMBL document CHEMBL3779843, “Discovery of a Potent Class I Protein Arginine Methyltransferase Fragment Inhibitor” (J Med Chem, 2016).

The target in assay [1] is Protein arginine N-methyltransferase 8 (Homo sapiens, UniProt Q9NR22). The experiment in a line: Inhibition of human PRMT8 using 24 residues of biotin labelled histone4 substrate and tritiated 3H-S-adenosylmethionine by scintillation proximity assay. For orientation: In a scintillation proximity assay essentially only radioactivity close to the scintillant gives light.
Sequence of Protein arginine N-methyltransferase 8 (Q9NR22 whole entry): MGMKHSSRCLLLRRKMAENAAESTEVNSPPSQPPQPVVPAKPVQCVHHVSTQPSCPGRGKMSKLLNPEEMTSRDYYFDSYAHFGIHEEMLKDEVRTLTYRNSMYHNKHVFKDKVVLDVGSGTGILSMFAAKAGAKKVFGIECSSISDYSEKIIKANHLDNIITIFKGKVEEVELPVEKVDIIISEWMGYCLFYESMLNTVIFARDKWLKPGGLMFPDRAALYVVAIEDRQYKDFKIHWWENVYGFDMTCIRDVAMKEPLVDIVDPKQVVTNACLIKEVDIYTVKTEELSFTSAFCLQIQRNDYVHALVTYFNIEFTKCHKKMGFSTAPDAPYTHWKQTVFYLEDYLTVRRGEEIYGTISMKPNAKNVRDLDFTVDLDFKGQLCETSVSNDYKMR

Assay [2] has as its target Protein arginine N-methyltransferase 5 (Homo sapiens, UniProt O14744). The experiment in a line: Inhibition of human PRMT5 using 24 residues of biotin labelled histone4 substrate and tritiated 3H-S-adenosylmethionine by scintillation proximity assay.
Assay [3] concerns the target T1, Histone-arginine methyltransferase CARM1 (Homo sapiens, UniProt Q86X55).
T1 sequence (Q86X55 whole entry): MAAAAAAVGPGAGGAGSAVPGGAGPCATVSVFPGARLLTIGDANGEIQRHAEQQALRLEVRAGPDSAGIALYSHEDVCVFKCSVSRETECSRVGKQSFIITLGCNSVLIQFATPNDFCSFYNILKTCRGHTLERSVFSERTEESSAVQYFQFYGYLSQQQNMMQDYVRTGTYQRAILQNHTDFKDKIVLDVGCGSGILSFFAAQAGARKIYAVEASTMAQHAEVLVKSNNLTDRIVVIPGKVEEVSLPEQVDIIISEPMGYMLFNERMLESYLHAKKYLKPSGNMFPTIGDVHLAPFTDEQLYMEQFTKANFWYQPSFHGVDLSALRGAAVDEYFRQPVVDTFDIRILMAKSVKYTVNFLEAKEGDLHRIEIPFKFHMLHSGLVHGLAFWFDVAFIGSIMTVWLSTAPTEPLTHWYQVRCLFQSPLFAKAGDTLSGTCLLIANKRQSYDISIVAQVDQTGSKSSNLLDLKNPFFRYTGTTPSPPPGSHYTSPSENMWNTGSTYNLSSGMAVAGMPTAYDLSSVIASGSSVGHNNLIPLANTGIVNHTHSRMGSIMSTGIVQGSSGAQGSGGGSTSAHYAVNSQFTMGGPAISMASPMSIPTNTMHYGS
The experiment in a line: (§1) Inhibition of CARM1 (unknown origin) using 24 residues of biotin labelled histone4 substrate and tritiated 3H-S-adenosylmethionine by scintillation proximity assay.

For assay [4], the target named is T2, Protein arginine N-methyltransferase 7 (Homo sapiens, UniProt Q9NVM4).
T2 sequence (Q9NVM4 whole entry): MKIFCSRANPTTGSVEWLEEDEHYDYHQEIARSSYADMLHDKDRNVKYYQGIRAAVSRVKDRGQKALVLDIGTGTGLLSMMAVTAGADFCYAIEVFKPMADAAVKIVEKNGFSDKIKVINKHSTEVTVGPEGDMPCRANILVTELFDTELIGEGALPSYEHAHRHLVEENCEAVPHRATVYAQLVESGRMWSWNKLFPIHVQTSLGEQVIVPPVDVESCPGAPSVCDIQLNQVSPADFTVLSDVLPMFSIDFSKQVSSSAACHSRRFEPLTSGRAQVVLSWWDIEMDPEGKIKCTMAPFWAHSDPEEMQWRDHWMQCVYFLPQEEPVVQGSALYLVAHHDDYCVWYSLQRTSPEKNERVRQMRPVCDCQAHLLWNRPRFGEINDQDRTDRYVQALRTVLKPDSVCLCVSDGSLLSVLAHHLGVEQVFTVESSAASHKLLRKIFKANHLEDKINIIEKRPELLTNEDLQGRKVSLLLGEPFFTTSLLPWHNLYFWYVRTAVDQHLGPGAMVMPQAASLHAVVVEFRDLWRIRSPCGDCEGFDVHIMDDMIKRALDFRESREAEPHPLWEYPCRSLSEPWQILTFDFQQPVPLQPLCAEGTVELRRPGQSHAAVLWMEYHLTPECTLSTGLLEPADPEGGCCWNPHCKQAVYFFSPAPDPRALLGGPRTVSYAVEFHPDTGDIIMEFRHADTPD
The experiment in a line: Inhibition of human PRMT7 using 24 residues of biotin labelled histone4 substrate and tritiated 3H-S-adenosylmethionine by scintillation proximity assay.

The target of assay [5] is Protein arginine N-methyltransferase 3 (Homo sapiens, UniProt O60678). The experiment in a line: Inhibition of human PRMT3 using 24 residues of biotin labelled histone4 substrate and tritiated 3H-S-adenosylmethionine by scintillation proximity assay.
Sequence of Protein arginine N-methyltransferase 3 (O60678 whole entry): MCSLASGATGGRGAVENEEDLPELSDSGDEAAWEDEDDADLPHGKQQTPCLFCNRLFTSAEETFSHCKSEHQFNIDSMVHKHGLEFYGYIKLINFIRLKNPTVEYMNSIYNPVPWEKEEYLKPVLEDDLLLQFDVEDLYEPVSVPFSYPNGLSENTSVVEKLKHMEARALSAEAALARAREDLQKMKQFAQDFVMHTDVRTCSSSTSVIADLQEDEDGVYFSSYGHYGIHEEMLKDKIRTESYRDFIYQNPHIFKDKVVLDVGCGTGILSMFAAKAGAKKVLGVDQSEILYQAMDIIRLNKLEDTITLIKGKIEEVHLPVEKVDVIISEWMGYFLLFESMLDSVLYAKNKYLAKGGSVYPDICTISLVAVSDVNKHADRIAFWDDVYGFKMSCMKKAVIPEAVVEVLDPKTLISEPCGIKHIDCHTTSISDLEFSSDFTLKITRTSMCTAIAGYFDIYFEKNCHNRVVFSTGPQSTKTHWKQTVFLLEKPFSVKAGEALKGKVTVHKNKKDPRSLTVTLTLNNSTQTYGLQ
In assay [6] the target is T3, Protein arginine N-methyltransferase 6 (Homo sapiens, UniProt Q96LA8). The experiment in a line: Inhibition of N-terminal hexa-His tagged human PRMT6 expressed in Sf9 cells using 24 residues of biotin labelled histone4 substrate and tritiated 3H-S-adenosylmethionine by scintillation proximity assay.
T3 sequence (Q96LA8 whole entry): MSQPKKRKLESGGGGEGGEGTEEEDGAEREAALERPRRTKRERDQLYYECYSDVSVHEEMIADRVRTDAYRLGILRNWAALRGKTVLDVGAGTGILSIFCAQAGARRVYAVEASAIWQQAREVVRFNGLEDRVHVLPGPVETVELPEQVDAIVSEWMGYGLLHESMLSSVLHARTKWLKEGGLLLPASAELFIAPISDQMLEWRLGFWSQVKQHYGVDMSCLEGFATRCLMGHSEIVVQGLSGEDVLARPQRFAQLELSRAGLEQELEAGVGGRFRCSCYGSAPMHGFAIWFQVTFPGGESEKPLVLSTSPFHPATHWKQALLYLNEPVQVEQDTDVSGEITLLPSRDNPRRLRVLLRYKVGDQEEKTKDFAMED
In assay [7] the target is T1, Histone-arginine methyltransferase CARM1. The experiment in a line: Inhibition of human PRMT4 using 24 residues of biotin labelled histone4 substrate and tritiated 3H-S-adenosylmethionine by scintillation proximity assay.
Assay [8] addresses Protein arginine N-methyltransferase 6 (Homo sapiens, UniProt Q96LA8, L267E). The experiment in a line: Inhibition of PRMT6 L267E mutant (unknown origin) using 24 residues of biotin labelled histone4 substrate and tritiated 3H-S-adenosylmethionine by scintillation proximity assay.
Assay [9] addresses T3, Protein arginine N-methyltransferase 6. The experiment in a line: Inhibition of FLAG-tagged human PRMT6 expressed in HEK293 cells assessed as reduction in H3R2 global methylation incubated for 20 hrs by Western blot method. In kind it is cell-based. In general terms: A western blot detects proteins with antibodies after separation by electrophoresis.
Assay [10] shares this target. The experiment in a line: Binding affinity to Inhibition of N-terminal hexa-His tagged human PRMT6 expressed in Sf9 cells by ITC method. (ITC needs no label: the signal is the heat of the interaction.)
Assay [11] has as its target Protein arginine N-methyltransferase 1 (Homo sapiens, UniProt Q99873). The experiment in a line: Inhibition of human PRMT1 using 24 residues of biotin labelled histone4 substrate and tritiated 3H-S-adenosylmethionine by scintillation proximity assay.
Assay [12] has as its target T1, Histone-arginine methyltransferase CARM1. The experiment in a line: Inhibition of GST-tagged CARM1 (unknown origin) using tritiated S-adenosylmethionine as substrate at 6 nM by methylation- based filter assay.
Assay [13] addresses T4, Histone-arginine methyltransferase CARM1 (Homo sapiens) (UniProt Q86X55).
T4 sequence (whole entry): T1 sequence (Q86X55 whole entry)
The assay is described as §1.

The source made the active and inactive calls. No cut-off for these calls is given here.

Sequence of Protein arginine N-methyltransferase 5 (O14744 whole entry): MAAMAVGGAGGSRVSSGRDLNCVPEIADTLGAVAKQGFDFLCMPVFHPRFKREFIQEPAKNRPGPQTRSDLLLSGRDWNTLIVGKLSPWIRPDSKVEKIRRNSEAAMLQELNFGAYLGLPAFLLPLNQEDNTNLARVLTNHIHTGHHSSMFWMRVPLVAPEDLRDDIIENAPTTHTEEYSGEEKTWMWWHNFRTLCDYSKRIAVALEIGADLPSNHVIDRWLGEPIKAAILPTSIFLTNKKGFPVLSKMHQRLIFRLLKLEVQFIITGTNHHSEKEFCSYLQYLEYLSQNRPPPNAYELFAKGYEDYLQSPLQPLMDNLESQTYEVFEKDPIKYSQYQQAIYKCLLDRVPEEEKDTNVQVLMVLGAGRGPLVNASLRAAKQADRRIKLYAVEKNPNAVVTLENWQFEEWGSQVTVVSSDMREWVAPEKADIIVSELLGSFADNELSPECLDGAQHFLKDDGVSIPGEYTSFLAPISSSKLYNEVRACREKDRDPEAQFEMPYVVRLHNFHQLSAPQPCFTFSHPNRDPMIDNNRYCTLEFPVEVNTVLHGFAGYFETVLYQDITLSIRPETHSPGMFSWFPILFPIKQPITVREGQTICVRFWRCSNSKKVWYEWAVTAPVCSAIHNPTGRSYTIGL
Sequence of Protein arginine N-methyltransferase 1 (Q99873 whole entry): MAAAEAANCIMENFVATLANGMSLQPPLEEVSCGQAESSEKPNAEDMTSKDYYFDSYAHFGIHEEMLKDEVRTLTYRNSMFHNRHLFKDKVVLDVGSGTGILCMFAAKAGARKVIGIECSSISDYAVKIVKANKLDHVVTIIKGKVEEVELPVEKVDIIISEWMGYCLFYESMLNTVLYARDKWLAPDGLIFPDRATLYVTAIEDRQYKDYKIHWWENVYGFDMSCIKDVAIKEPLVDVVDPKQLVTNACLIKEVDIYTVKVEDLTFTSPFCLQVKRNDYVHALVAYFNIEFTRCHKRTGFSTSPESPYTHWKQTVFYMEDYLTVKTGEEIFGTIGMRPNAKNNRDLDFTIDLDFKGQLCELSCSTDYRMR
Sequence of Protein arginine N-methyltransferase 6 (Homo sapiens, UniProt Q96LA8, L267E) (Q96LA8 whole entry L267E): as the sequence (Q96LA8 whole entry) above, with L267E counted along it

As for `NCCN1CCC(Cc2ccccc2)CC1`, the concentration for half-maximal inhibition (IC50) is 2.1 µM in assay [1]; “Not Active” in assay [2]; 1000 nM in [3]; “Not Active” in assay [4]; 19 µM in [5]; 0.23 µM in assay [6]. In addition, the results for the IC50 in [7], in [8] and in [9] were 1000 nM, 390 nM and 21 µM, respectively. In [10], the Kd was found to be 970 nM.

As to `Nc1ccc(S(=O)(=O)Nc2nccs2)cc1` [SULFATHIAZOLE], inhibition in assay [6] was half-maximal at 430 µM (IC50).

For the molecule `CNCCN(C)C`, the half-inhibitory concentration (IC50) in assay [1] is 7 µM; in assay [2] it was “Not Active”; in assay [3] it was 3000 nM; in [4] it was “Not Active”; in [5] it was 35 µM; in [6] it was 5 µM. Moreover, in [7], the half-inhibitory concentration (IC50) turned out to be 3000 nM.

Turning to `CCNC(=O)[C@@H](C)N`, the IC50 in assay [1] is above 200 µM; in assay [11], above 1000 µM; in assay [2] it was “Not Active”; in [3] it was 105000 nM; in assay [4] it was “Not Active”; in assay [5], above 1000 µM. Besides, the 50% inhibitory concentration (IC50) in [6] is above 200 µM; in [7], 105000 nM.

As to `CNCCN1CCC(C)CC1`, the half-maximal inhibitory concentration (IC50) in assay [1] is 15 µM; in assay [11], 48 µM; in [2], “Not Active”; in assay [3], 200 nM; in assay [4], “Not Active”; in [5] it was above 500 µM. The molecule further returned an IC50 in assay [7] of 200 nM.

Turning to `C[C@@H](N)C(=O)NCc1cccc(-n2nc(C(F)(F)F)cc2-c2nnc(-c3cccc4[nH]ccc34)o2)c1`, the IC50 in assay [12] is 27 nM.

Regarding `CNCCN1CCC(c2ccc3[nH]c(-c4ccccc4OC)c(Cl)c3c2)CC1`, the inhibition entry in assay [13] is “Active”.

`Cc1nc(N)sc1-n1ccc(C(F)(F)F)n1` showed an IC50 in [6] of 46 µM.

Molecule `CNCc1cccc(-c2ccco2)c1` gave an IC50 in assay [6] of 146 µM.

For the molecule `CNCc1cccc(-c2cccnc2)c1`, the concentration for half-maximal inhibition (IC50) in assay [6] is 104 µM.

What is called IC50 is the concentration needed to halve the response being measured. What is called Kd is the constant that tells how readily two partners part at equilibrium. Lower therefore signals tighter binding.
